Reference: patent US20260174724A1, “COMPOSITION FOR PREVENTING AND/OR IMPROVING BRAIN DYSFUNCTION” (THE INSTITUTE OF BIOACTIVE PEPTIDES, priority 2024, published 2026)

Legend:
[1] = simulated gi fluid, 4 h, 1 mg/mL
Method: • Solutions A-D and A1-D1 were prepared according to the following components and concentrations, with a volume of 10 mL each. The mixed solution was placed in a water bath at 37° C., and the content of the remaining DHM was determined by HPLC at different time intervals. • Solution A: SIF+DHM (1 mg/mL); • Solution B: SIF+DHM (1 mg/mL)+taurine (0.3 mg/mL) • Solution C: SIF+DHM (1 mg/mL)+L-theanine (0.4 mg/mL); • Solution D: SIF+DHM (1 mg/mL)+taurine (0.1 mg/mL)+L-theanine (0.1 mg/mL) • Solution A1: SIF+DHM (1 mg/mL)+Fe^3+ (50 μmol/L); • Solution B1: SIF+DHM (1 mg/mL)+taurine (0.3 mg/mL)+Fe^3+ (50 μmol/L); • Solution C1: SIF+DHM (1 mg/mL)+L-theanine (0.4 mg/mL)+Fe^3+ (50 μmol/L); • Solution D1: SIF+DHM (1 mg/mL)+taurine (0.1 mg/mL)+L-theanine (0.1 mg/mL)+Fe^3+ (50 μmol/L).

[2] = Bioavailability experiment: DHM concentration in plasma after gavage, LC-MS/MS; type: in vivo; details: male SD rats, DHM 100 mg/kg
Method: Experimental subject grouping: 24 male SD rats, weighing between 200-220 g, were randomly divided into four groups.
• Group A (control group): DHM was administered alone at a dose of 100 mg/kg. • Group B: DHM (100 mg/kg) was co-administered with L-theanine (10 mg/kg). • Group C: DHM (100 mg/kg) was co-administered with taurine (10 mg/kg). • Group D: DHM (100 mg/kg), L-theanine (10 mg/kg), and taurine (10 mg/kg) were co-administered.
The drug was mixed with 3 mL of 0.5% CMC-Na solution and administered by gavage.
At 0.1, 0.5, 1, 1.5, 2, 2.5, 3, 4, 6, 8, and 12 h after administration, 200 μL of blood samples were collected through the tail vein and placed in heparinized EP tubes.
The blood samples were centrifuged at 5000 rpm for 15 min at 4° C., and plasma was collected and stored at −20° C.
Before analysis, 30 μL of plasma sample was taken, 30 μL of internal standard (rutin) solution and 140 μL of 1% formic acid-acetonitrile solution were added, vortex oscillated for 1 min, centrifuged at 12000 rpm for 5 min, and 150 μL of supernatant was taken for LC-MS/MS analysis. Analysis purpose:
The concentration of DHM in plasma was determined at different time points to evaluate the effect of the composition on the bioavailability of DHM.

[3] = tested on: intracerebral hemorrhage (ICH) model of C57BL/6N mice; experiment: Cerebral hematoma experiment: collagenase-induced ICH model, hematoma volume by ImageJ; type: in vivo; details: Day 1 after modeling; gavage 7 days before collagenase; FIG. 3
Excerpt: This experiment aims to evaluate the effect of different compositions on the hematoma volume in the intracerebral hemorrhage (ICH) model of C57BL/6N mice. A total of 72 male C57BL/6N mice, aged 8-10 weeks, were randomly divided into 6 groups and treated with gavage for 7 days. Subsequently, except for the sham operation group (CON), the remaining groups were induced the ICH model by collagenase method. […]
On the 1st and 3rd day after modeling, 6 mice were randomly selected from each group for decapitation and brain sampling. The brain tissue was cut into slices on ice, and the hematoma volume was calculated using ImageJ software.

remaining amount of DHM [1] | CL [2] | AUC(0-inf) ([2]; rat, po) | AUC(0-t) ([2]; rat, po) | Cmax ([2]; rat, po) | Tmax ([2]; rat, po) | half-life ([2]; rat, po) | SMILES | hematoma volume compared with the MOD group [3]
below 50% | 517 ± 62.4 L/h/kg | 194 ng·h/mL | 172 ng·h/mL | 118 ± 13.7 ng/mL | 0.83 ± 1.12 h | 1.91 ± 0.67 h | O=C1c2c(O)cc(O)cc2O[C@H](c2cc(O)c(O)c(O)c2)[C@H]1O [DHM, dihydromyricetin] | –
– | – | – | – | – | – | – | O=C1c2c(O)cc(O)cc2O[C@H](c2cc(O)c(O)c(O)c2)[C@H]1O [G1 group, dihydromyricetin] | decreased
